The record followed here is PMC2918893 (Journal of biomolecular NMR, 2009).

The structures appear in SMILES notation.

The test deals with T1, HisF (cyclase subunit of imidazole glycerol phosphate synthase, IGPS) (Thermotoga maritima, UniProt Q9X0C6).
T1 sequence (Q9X0C6 1-253): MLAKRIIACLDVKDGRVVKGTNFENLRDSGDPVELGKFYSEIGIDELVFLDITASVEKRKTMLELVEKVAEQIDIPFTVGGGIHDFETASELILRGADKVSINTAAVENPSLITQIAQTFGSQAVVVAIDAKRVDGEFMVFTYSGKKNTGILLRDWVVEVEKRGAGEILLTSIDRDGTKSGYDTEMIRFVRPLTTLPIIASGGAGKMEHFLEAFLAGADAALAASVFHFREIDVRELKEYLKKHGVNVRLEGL
T1 sequence (Q9X0C8 1-201 partner): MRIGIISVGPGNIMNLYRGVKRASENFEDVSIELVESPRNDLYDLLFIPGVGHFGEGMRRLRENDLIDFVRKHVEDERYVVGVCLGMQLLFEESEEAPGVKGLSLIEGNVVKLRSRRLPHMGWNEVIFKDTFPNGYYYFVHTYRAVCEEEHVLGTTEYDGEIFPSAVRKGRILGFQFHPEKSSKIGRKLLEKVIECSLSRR
The test can be described thus: 1H-15N TROSY NMR titration, global fit of chemical shift changes of […] residues. Format: binding.

Take `O=P(O)(O)OC[C@@H](O)[C@@H](O)c1c[nH]cn1` [IGP]: the Kd worked out at 500 ± 100 µM.
